PubChem BioAssay (NCI)
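Results reflect a 48-hour exposure of cells in 96-well plates to compound at five concentrations. At the TGI there is no net growth.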

Legend:
Experiment in all cases: growth of human tumour cells (NCI), 48 h
DMS 273 small cell lung = test system: DMS 273 small cell lung
LXFL 529 NSCLC = test system: LXFL 529 NSCLC
HOP-18 NSCLC = test system: HOP-18 NSCLC
M19-MEL melanoma = test system: M19-MEL melanoma
XF 498 CNS = test system: XF 498 CNS
KM20L2 colon = test system: KM20L2 colon
DMS 114 small cell lung = test system: DMS 114 small cell lung
RXF-631 renal = test system: RXF-631 renal
SNB-78 CNS = test system: SNB-78 CNS

`CC(=O)NC1=C(N)C(=O)c2ccccc2C1=O` was tested, and the TGI (DMS 273 small cell lung) was greater than 100 µM, the TGI (LXFL 529 NSCLC) was greater than 100 µM and the TGI (HOP-18 NSCLC) was greater than 100 µM. It also gave a TGI (M19-MEL melanoma) of 41 µM, a TGI (XF 498 CNS) greater than 100 µM and a TGI (KM20L2 colon) greater than 100 µM. For the same compound, the TGI (DMS 114 small cell lung) was 28.1 µM, the TGI (RXF-631 renal) was greater than 100 µM and the TGI (SNB-78 CNS) was greater than 100 µM.

For `O=C(O)c1ccc(Nc2nc3nn(Cc4ccccc4)cc3c(=O)s2)cc1`, the TGI (DMS 273 small cell lung) was greater than 100 µM, the TGI (LXFL 529 NSCLC) was greater than 100 µM and the TGI (HOP-18 NSCLC) was greater than 100 µM. It also gave a TGI (M19-MEL melanoma) greater than 100 µM, a TGI (KM20L2 colon) greater than 100 µM and a TGI (DMS 114 small cell lung) greater than 100 µM. It also gave a TGI (SNB-78 CNS) greater than 100 µM.

For `OC12CCC3(O)c4ccccc4C3C1c1ccccc12` (stereo unspecified), the TGI (DMS 273 small cell lung) was greater than 100 µM, the TGI (LXFL 529 NSCLC) was greater than 100 µM and the TGI (HOP-18 NSCLC) was greater than 100 µM. It also gave a TGI (M19-MEL melanoma) greater than 100 µM, a TGI (XF 498 CNS) greater than 100 µM and a TGI (KM20L2 colon) greater than 100 µM. For the same compound, the TGI (SNB-78 CNS) was greater than 100 µM.

`CCn1c(CSc2nc(-c3ccccc3)c(-c3ccccc3)[nH]2)n[nH]c1=S` showed a TGI (DMS 273 small cell lung) greater than 100 µM, a TGI (LXFL 529 NSCLC) greater than 100 µM and a TGI (M19-MEL melanoma) greater than 100 µM. It also gave a TGI (XF 498 CNS) greater than 100 µM, a TGI (KM20L2 colon) greater than 100 µM and a TGI (DMS 114 small cell lung) greater than 100 µM. It also gave a TGI (SNB-78 CNS) greater than 100 µM.

With `O/N=C\C(=Nc1ccc(Cc2ccc(N=C(/C=N\O)NO)cc2)cc1)NO` the TGI (DMS 273 small cell lung) was greater than 100 µM, the TGI (LXFL 529 NSCLC) was greater than 100 µM and the TGI (HOP-18 NSCLC) was greater than 100 µM. It also gave a TGI (M19-MEL melanoma) greater than 100 µM, a TGI (XF 498 CNS) greater than 100 µM and a TGI (KM20L2 colon) greater than 100 µM. The TGI (DMS 114 small cell lung) was greater than 100 µM and the TGI (SNB-78 CNS) was greater than 100 µM.

In the case of `O=C(c1ccco1)N(C(=S)N1CCN(c2ccccn2)CC1)c1ccccc1`, the TGI (DMS 273 small cell lung) is reported as greater than 100 µM, the TGI (LXFL 529 NSCLC) is reported as greater than 100 µM and the TGI (HOP-18 NSCLC) is reported as greater than 100 µM. It also gave a TGI (M19-MEL melanoma) greater than 100 µM, a TGI (XF 498 CNS) greater than 100 µM and a TGI (KM20L2 colon) greater than 100 µM. For the same compound, the TGI (DMS 114 small cell lung) was greater than 100 µM and the TGI (SNB-78 CNS) was greater than 100 µM.

For `Cc1ccc(C2C(Cl)C(=O)N2NC(=O)c2ccc(N)cc2)cc1` (stereo unspecified), the TGI (DMS 273 small cell lung) was 17.4 µM, the TGI (LXFL 529 NSCLC) was 29.3 µM and the TGI (M19-MEL melanoma) was 38.9 µM. It also gave a TGI (XF 498 CNS) of 26.5 µM, a TGI (KM20L2 colon) of 48.2 µM and a TGI (DMS 114 small cell lung) of 23.3 µM. It also gave a TGI (SNB-78 CNS) of 46.2 µM.

Work on `COc1ccc(/C(Cl)=C(\C=O)c2ccc(Cl)cc2)cc1OC` yielded a TGI (DMS 273 small cell lung) greater than 100 µM, a TGI (LXFL 529 NSCLC) of 37.4 µM and a TGI (HOP-18 NSCLC) greater than 100 µM. The TGI (M19-MEL melanoma) was 48.3 µM, the TGI (KM20L2 colon) was 31.9 µM and the TGI (DMS 114 small cell lung) was 59.5 µM. For the same compound, the TGI (RXF-631 renal) was greater than 100 µM and the TGI (SNB-78 CNS) was greater than 100 µM.
